Experimental data: PubChem BioAssay (NCI)
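Briefly, cells in 96-well plates were exposed to five compound concentrations for 48 h, and endpoints were estimated by linear interpolation. GI50 = concentration required for 50% inhibition of growth. TGI marks complete inhibition of growth.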

What was measured:
Assay in all cases: growth of human tumour cells (NCI), 48 h
A498 renal = test system: A498 renal
HL-60(TB) leukemia = test system: HL-60(TB) leukemia
HT29 colon = test system: HT29 colon
IGROV1 ovarian = test system: IGROV1 ovarian
NCI-H23 lung = test system: NCI-H23 lung
OVCAR-3 ovarian = test system: OVCAR-3 ovarian
OVCAR-4 ovarian = test system: OVCAR-4 ovarian
RPMI-8226 leukemia = test system: RPMI-8226 leukemia
SF-268 CNS = test system: SF-268 CNS
SK-MEL-5 melanoma = test system: SK-MEL-5 melanoma
SK-OV-3 ovarian = test system: SK-OV-3 ovarian
SN12C renal = test system: SN12C renal
DU-145 prostate = test system: DU-145 prostate
PC-3 prostate = test system: PC-3 prostate

| SMILES | TGI (A498 renal) [µM] | TGI (HL-60(TB) leukemia) [µM] | TGI (HT29 colon) [µM] | TGI (IGROV1 ovarian) [µM] | TGI (NCI-H23 lung) [µM] | TGI (OVCAR-3 ovarian) [µM] | TGI (OVCAR-4 ovarian) [µM] | TGI (RPMI-8226 leukemia) [µM] | TGI (SF-268 CNS) [µM] | TGI (SK-MEL-5 melanoma) [µM] | TGI (SK-OV-3 ovarian) [µM] | TGI (SN12C renal) [µM] | TGI (DU-145 prostate) [µM] | TGI (PC-3 prostate) [µM] | GI50 (A498 renal) [µM] | GI50 (NCI-H23 lung) [µM] | GI50 (OVCAR-4 ovarian) [µM] | GI50 (RPMI-8226 leukemia) [µM] | GI50 (SK-MEL-5 melanoma) [µM] |
| --- | --- | --- | --- | --- | --- | --- | --- | --- | --- | --- | --- | --- | --- | --- | --- | --- | --- | --- | --- |
| COc1ccc(-c2nc3c(nc2-c2ccc(OC)cc2)N(C)S(=O)(=O)N=C3N)cc1 | > 100 | 43.7 | 74.9 | > 100 | > 100 | 31 | 79.2 | 40.6 | > 100 | 26.2 | 88.8 | > 100 | – | – | – | – | – | – | – |
| Brc1ccc(-c2cc(-c3ccc4c(c3)OCO4)c(-c3cccs3)n2Cc2ccccc2)cc1 | – | > 100 | > 100 | > 100 | – | – | > 100 | > 100 | > 100 | > 100 | > 100 | > 100 | > 100 | > 100 | – | – | – | – | – |
| NC(=O)C1N=NSC1NC(=O)c1ccc([N+](=O)[O-])cc1 (stereo unspecified) | – | – | > 100 | > 100 | > 100 | > 100 | > 100 | > 100 | > 100 | 69.8 | > 100 | > 100 | > 100 | > 100 | – | – | – | – | – |
| O=S(=O)(O)c1ccccc1N=Nc1ccc(N=Nc2c(O)ccc3ccccc23)c(S(=O)(=O)O)c1 | – | – | > 100 | > 100 | > 100 | > 100 | > 100 | > 100 | > 100 | > 100 | > 100 | > 100 | > 100 | > 100 | – | – | – | – | – |
| CCc1c(C)c2ccc(OCC(=O)N=Nc3c(O)[nH]c4ccccc34)c(C)c2oc1=O | > 33.3 | – | – | – | > 33.3 | – | 1.86 | 2.27 | – | > 33.3 | – | – | – | – | > 33.3 | 1.13 | 0.788 | 0.936 | 1.06 |
| CCCCc1c2c(nc3c1CC/C(=C\c1ccc([N+](=O)[O-])cc1)C3=O)CCCC2 | – | – | 2.66 | 3.24 | – | 3.14 | – | 5.69 | 3.93 | – | 3.91 | 3.34 | – | – | – | – | – | – | – |
| CC#CCCCC1(C)CCCNC1=S (stereo unspecified) | – | > 10 | > 10 | > 10 | > 10 | > 10 | > 10 | – | > 10 | > 10 | > 10 | > 10 | > 10 | > 10 | – | – | – | – | – |
| COC(=O)C1=COc2c(n(C)c3ccccc23)-c2ccccc21 | > 100 | > 100 | > 100 | > 100 | > 100 | > 100 | – | > 100 | > 100 | > 100 | > 100 | > 100 | > 100 | > 100 | – | – | – | – | – |
| CCOC(=O)c1cn2c(ccc3sc4ccccc4c(=O)c32)n1 | > 100 | > 100 | > 100 | > 100 | > 100 | > 100 | – | > 100 | > 100 | > 100 | – | > 100 | > 100 | > 100 | – | – | – | – | – |
| NC(=O)SCC(=O)Nc1ccc2ncccc2c1 | > 100 | > 100 | > 100 | > 100 | > 100 | > 100 | > 100 | 76.9 | > 100 | > 100 | > 100 | > 100 | – | > 100 | – | – | – | – | – |
| CCn1c(=O)c2c3cc(OC(C)=O)ccc3oc2c2ccc(OC(C)=O)cc21 | 83 | – | > 100 | > 100 | > 100 | > 100 | > 100 | – | > 100 | > 100 | > 100 | > 100 | > 100 | > 100 | – | – | – | – | – |
| S=C(c1c[nH]c2ccccc12)N1CCCCC1 | > 100 | > 100 | > 100 | > 100 | > 100 | > 100 | – | > 100 | > 100 | > 100 | > 100 | > 100 | > 100 | > 100 | – | – | – | – | – |
| N#CCCN(CCC#N)c1ccc(C(N=Nc2ccc(Cl)cc2)=Nc2ccc(Cl)cc2)cc1 | 43.3 | – | 44.6 | 28.1 | 41.8 | 36.9 | 81.2 | > 100 | 33.4 | 24.7 | > 100 | 33.5 | 30.3 | 32.1 | – | – | – | – | – |
| Cc1ccc(S(=O)(=O)N2CCCSCCN(S(=O)(=O)c3ccc(C)cc3)CCCSCC2)cc1 | > 100 | > 100 | > 100 | > 100 | > 100 | > 100 | > 100 | > 100 | > 100 | > 100 | > 100 | > 100 | > 100 | – | – | – | – | – | – |
| O=C1CCCC2=C1CC1=C(CCCC1=O)N2c1cccc([N+](=O)[O-])c1 | > 100 | > 100 | > 100 | > 100 | > 100 | > 100 | > 100 | > 100 | > 100 | > 100 | > 100 | > 100 | – | > 100 | – | – | – | – | – |
| COC1=CC(=O)NCCN1 | > 100 | 41 | > 100 | > 100 | > 100 | > 100 | > 100 | – | > 100 | > 100 | > 100 | > 100 | – | – | – | – | – | – | – |
| CN=C(NC)N(C)c1nc(=[N+](C)C)ss1 | > 100 | > 100 | > 100 | > 100 | > 100 | > 100 | – | – | > 100 | > 100 | > 100 | > 100 | – | – | – | – | – | – | – |
| Cc1nn(-c2ccccc2)c2nc3ccc(Cl)cc3c(-c3ccccc3)c12 | – | – | > 100 | > 100 | > 100 | > 100 | > 100 | > 100 | > 100 | > 100 | > 100 | > 100 | > 100 | > 100 | – | – | – | – | – |
